In US11447466B2, “Substituted indole compounds useful as inhibitors of TLR7/8/9” (BRISTOL-MYERS SQUIBB COMPANY, priority 2017, dated 2022):
pIC50: −log10 of the molar value.

Assays:
Format in all cases: cell-based
[1] = target: T1, human TLR7 (Homo sapiens, UniProt Q9NYK1); assay: TLR7 inhibition reporter assay (HEK-Blue SEAP reporter, gardiquimod stimulation); conditions: HEK-Blue cells overexpressing human TLR7, SEAP reporter, gardiquimod 7.5 μM, 22 hour incubation
T1 construct: host or cells: HEK-Blue cells
T1 sequence (Q9NYK1 27-1049): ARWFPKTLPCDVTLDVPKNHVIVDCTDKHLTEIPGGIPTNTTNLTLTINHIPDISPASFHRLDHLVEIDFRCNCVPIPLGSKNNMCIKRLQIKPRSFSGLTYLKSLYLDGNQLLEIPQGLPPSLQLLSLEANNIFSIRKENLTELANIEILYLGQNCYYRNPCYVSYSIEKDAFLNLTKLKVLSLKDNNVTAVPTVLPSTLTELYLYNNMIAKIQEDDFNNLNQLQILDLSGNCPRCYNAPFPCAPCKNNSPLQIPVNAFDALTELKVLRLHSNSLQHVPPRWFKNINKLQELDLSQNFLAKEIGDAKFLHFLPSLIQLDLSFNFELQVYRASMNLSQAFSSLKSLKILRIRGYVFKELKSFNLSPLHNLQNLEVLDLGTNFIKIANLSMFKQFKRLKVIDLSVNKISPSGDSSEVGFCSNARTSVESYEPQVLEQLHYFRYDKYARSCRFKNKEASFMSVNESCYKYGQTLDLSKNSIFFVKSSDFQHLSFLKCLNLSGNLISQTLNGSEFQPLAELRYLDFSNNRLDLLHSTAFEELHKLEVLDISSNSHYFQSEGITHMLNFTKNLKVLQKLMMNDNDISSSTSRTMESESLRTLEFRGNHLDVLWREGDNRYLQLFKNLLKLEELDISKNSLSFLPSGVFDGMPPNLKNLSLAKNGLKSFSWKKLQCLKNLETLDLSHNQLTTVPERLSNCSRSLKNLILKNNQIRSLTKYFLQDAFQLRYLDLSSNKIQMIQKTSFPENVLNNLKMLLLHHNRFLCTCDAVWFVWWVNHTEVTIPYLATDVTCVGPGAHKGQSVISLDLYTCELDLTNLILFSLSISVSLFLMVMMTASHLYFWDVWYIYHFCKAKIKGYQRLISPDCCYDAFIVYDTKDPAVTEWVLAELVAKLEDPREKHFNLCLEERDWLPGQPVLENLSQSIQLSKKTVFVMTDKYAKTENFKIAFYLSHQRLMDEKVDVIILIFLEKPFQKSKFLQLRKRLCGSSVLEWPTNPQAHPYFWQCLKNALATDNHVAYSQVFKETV
Summary of the method: (§1)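 Dose–response from 0.05 nM to 50 μM was run in HEK-Blue human TLR7, TLR8 and TLR9 reporter cells. After 30 min at room temperature with compound, ligand was added (TLR7 gardiquimod 7.5 μM; TLR8 R848 15.9 μM; TLR9 ODN2006 5 nM) and SEAP measured next day, at 22 h.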

[2] = target: T2, human TLR8 (Homo sapiens, UniProt Q9NR97); assay: TLR8 inhibition reporter assay (HEK-Blue SEAP reporter, R848 stimulation); conditions: HEK-Blue cells overexpressing human TLR8, SEAP reporter, R848 15.9 μM, 22 hour incubation
T2 construct: host or cells: HEK-Blue cells
T2 sequence (Q9NR97 27-1041): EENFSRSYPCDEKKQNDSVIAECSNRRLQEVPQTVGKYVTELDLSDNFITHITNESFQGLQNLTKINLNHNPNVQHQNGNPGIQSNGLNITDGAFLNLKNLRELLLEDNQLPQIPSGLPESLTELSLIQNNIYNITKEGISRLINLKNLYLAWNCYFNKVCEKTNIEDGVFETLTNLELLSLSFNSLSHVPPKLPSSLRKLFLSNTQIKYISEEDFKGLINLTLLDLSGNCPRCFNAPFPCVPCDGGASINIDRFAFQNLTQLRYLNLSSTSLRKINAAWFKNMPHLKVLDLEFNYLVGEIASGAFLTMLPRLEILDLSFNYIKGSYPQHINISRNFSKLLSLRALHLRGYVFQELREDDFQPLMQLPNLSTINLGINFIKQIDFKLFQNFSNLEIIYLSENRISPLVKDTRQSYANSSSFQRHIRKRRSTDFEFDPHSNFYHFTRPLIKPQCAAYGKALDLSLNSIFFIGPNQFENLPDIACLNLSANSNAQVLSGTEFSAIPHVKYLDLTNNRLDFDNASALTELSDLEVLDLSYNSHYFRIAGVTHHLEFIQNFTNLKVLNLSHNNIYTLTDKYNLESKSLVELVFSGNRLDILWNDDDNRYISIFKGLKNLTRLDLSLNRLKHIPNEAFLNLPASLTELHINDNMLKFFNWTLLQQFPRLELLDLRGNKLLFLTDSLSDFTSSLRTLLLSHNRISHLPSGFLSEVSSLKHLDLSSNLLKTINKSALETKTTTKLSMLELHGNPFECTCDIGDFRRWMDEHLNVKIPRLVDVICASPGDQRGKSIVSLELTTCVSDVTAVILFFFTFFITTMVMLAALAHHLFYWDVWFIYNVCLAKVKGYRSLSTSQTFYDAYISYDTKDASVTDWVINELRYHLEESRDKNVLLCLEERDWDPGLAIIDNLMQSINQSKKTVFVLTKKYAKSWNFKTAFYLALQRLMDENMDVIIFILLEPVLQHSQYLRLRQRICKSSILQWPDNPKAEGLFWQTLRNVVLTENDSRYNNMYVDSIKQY
Summary of the method: as §1

[3] = target: T3, human TLR9 (Homo sapiens, UniProt Q9NR96); assay: TLR9 inhibition reporter assay (HEK-Blue SEAP reporter, ODN2006 stimulation); conditions: HEK-Blue cells overexpressing human TLR9, SEAP reporter, ODN2006 5 nM, 22 hour incubation
T3 construct: host or cells: HEK-Blue cells
T3 sequence (Q9NR96 26-1032): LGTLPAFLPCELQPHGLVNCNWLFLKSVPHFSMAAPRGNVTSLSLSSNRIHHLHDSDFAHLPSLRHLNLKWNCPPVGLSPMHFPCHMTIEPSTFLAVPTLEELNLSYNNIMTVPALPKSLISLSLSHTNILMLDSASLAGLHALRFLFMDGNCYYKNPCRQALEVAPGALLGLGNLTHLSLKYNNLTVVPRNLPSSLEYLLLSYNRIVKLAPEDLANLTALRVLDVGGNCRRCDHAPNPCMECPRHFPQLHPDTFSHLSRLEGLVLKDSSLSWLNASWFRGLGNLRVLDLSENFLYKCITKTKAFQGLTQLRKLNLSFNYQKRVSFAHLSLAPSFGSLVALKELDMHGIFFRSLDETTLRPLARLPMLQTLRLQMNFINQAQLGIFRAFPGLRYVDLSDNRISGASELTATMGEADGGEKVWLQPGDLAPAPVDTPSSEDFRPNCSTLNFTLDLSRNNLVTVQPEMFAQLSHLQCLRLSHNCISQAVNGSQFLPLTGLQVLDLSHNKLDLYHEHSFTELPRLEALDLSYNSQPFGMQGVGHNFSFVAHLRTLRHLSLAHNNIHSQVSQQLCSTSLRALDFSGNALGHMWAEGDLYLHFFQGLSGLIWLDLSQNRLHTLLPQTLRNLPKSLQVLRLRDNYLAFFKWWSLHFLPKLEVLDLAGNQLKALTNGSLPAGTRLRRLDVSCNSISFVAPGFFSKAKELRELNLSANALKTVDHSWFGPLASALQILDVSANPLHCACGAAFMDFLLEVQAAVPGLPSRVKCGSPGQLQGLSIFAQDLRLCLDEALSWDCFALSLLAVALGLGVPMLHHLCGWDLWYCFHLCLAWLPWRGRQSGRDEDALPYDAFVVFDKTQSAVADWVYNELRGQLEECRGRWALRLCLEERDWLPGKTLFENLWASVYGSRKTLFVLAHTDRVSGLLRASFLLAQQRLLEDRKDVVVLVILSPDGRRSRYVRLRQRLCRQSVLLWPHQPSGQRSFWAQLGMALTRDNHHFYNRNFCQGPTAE
Summary of the method: as §1

Compound Cc1cc(-c2[nH]c3ccc(C4CCNCC4)cc3c2C(C)C)cn(CC(C)(C)O)c1=O [Example 43, 1-(2-hydroxy-2-methylpropyl)-5-(3-isopropyl-5-(piperidin-4-yl)-1H-indol-2-yl)-3-methylpyridin-2(1H)-one] has a pIC50 [1] of 6.96, a pIC50 [2] of 6.81 and a pIC50 [3] of 5.81.
With Cc1c(-c2[nH]c3ccc(C4CCN(CCCC(F)(F)F)CC4)cc3c2C(C)C)cn(C)c(=O)c1Cl [Example 105, 3-chloro-5-(3-isopropyl-5-(1-(4,4,4-trifluorobutyl)piperidin-4-yl)-1H-indol-2-yl)-1,4-dimethylpyridin-2(1H)-one] the pIC50 [1] was 8.29, the pIC50 [2] was 7.97 and the pIC50 [3] was 5.26.
Cc1cc(-c2[nH]c3ccc(C4CCN(C5COC5)CC4)cc3c2C(C)C)c(C)n(C)c1=O [Example 211, 5-(3-isopropyl-5-(1-(oxetan-3-yl)piperidin-4-yl)-1H-indol-2-yl)-1,3,6-trimethylpyridin-2(1H)-one] showed a pIC50 [1] of 7.46, a pIC50 [2] of 7.77 and a pIC50 [3] of no more than 4.30.
Compound Cc1cc(-c2[nH]c3ccc(C4CCN(C)CC4)cc3c2C(C)C)cn(CCO)c1=O [Example 264, 1-(2-hydroxyethyl)-5-(3-isopropyl-5-(1-methylpiperidin-4-yl)-1H-indol-2-yl)-3-methylpyridin-2(1H)-one] has a pIC50 [1] of 7.87, a pIC50 [2] of 6.03 and a pIC50 [3] of 5.22.
With COCCn1cc(-c2[nH]c3ccc(C4CCN(C5CCOCC5)CC4)cc3c2C(C)C)cc(C)c1=O [Example 261, 5-(3-isopropyl-5-(1-(tetrahydro-2H-pyran-4-yl)piperidin-4-yl)-1H-indol-2-yl)-1-(2-methoxyethyl)-3-methylpyridin-2(1H)-one] the pIC50 [1] was 8.06, the pIC50 [2] was 8.15 and the pIC50 [3] was 5.47.
Work on Cc1cc(-c2[nH]c3ccc(C4CCN(CCCC(F)(F)F)CC4)cc3c2C(C)C)cn(Cc2ccccc2)c1=O [Example 111, 1-benzyl-5-(3-isopropyl-5-(1-(4,4,4-trifluorobutyl)piperidin-4-yl)-1H-indol-2-yl)-3-methylpyridin-2(1H)-one] yielded a pIC50 [1] of 7.32, a pIC50 [2] of 6.80 and a pIC50 [3] of 5.51.
With Cc1c(-c2[nH]c3ccc(C4CCN(C5COC5)CC4)cc3c2C(C)C)cn(C)c(=O)c1C#N [Example 221, 5-(3-isopropyl-5-(1-(oxetan-3-yl)piperidin-4-yl)-1H-indol-2-yl)-1,4-dimethyl-2-oxo-1,2-dihydropyridine-3-carbonitrile] the pIC50 [1] was 7.17, the pIC50 [2] was 8.03 and the pIC50 [3] was 4.60.
With Cc1cc(-c2[nH]c3ccc(C4CCN(CC(C)(C)O)CC4)cc3c2C(C)C)nn(C)c1=O [Example 311, 6-(5-(1-(2-hydroxy-2-methylpropyl)piperidin-4-yl)-3-isopropyl-1H-indol-2-yl)-2,4-dimethylpyridazin-3(2H)-one] the pIC50 [1] was 7.75, the pIC50 [2] was 8.41 and the pIC50 [3] was 5.50.
With CCCNC(=O)c1cc(-c2[nH]c3ccc(C4CCNCC4)cc3c2C(C)C)cn(C)c1=O [Example 64, 5-(3-isopropyl-5-(piperidin-4-yl)-1H-indol-2-yl)-1-methyl-2-oxo-N-propyl-1,2-dihydropyridine-3-carboxamide] the pIC50 [1] was 6.32, the pIC50 [2] was 5.97 and the pIC50 [3] was 5.13.
In the case of C=C(C)c1cc(-c2[nH]c3ccc(C4CCNCC4)cc3c2C(C)C)cn(C)c1=O [Example 51, 5-(3-isopropyl-5-(piperidin-4-yl)-1H-indol-2-yl)-1-methyl-3-(prop-1-en-2-yl)pyridin-2(1H)-one], the pIC50 [1] was 7.96, the pIC50 [2] was 7.51 and the pIC50 [3] was 5.59.
Cc1cc(-c2[nH]c3ccc(C4CCN(C(=O)CN(C)C)CC4)cc3c2C(C)C)cn(C)c1=O [Example 271, 5-(5-(1-(2-(dimethylamino)acetyl)piperidin-4-yl)-3-isopropyl-1H-indol-2-yl)-1,3-dimethylpyridin-2(1H)-one] showed a pIC50 [1] of 8.28, a pIC50 [2] of 8.08 and a pIC50 [3] of 4.87.
In the case of Cc1c(-c2[nH]c3ccc(C4CCNCC4)cc3c2C(C)C)cn(C)c(=O)c1C [Example 14, 5-(3-isopropyl-5-(piperidin-4-yl)-1H-indol-2-yl)-1,3,4-trimethylpyridin-2(1H)-one], the pIC50 [1] was 8.46, the pIC50 [2] was 8.44 and the pIC50 [3] was 5.78.
CC(C)CCN1CCC(c2ccc3[nH]c(-c4cc(-c5ccccc5)c(=O)n(C)c4)c(C(C)C)c3c2)CC1 [Example 90, 5-(5-(1-isopentylpiperidin-4-yl)-3-isopropyl-1H-indol-2-yl)-1-methyl-3-phenylpyridin-2(1H)-one] gave a pIC50 [1] of 7.66, a pIC50 [2] of 8.15 and a pIC50 [3] of 5.70.
Work on Cc1cc(-c2[nH]c3ccc(C4CCN(CCC(C)(C)O)CC4)cc3c2C(C)C)c(C)n(C)c1=O [Example 74, 5-(5-(1-(3-hydroxy-3-methylbutyl)piperidin-4-yl)-3-isopropyl-1H-indol-2-yl)-1,3,6-trimethylpyridin-2(1H)-one] yielded a pIC50 [1] of 7.68, a pIC50 [2] of 8.31 and a pIC50 [3] of 5.36.
